Measurements taken from paper PMC3608514 (Advances in enzyme regulation, 2009).

Experiments:
DGK-θ [1] = biological target: T1, DGK-θ (Homo sapiens, UniProt P52824)
T1 sequence (P52824 1-942): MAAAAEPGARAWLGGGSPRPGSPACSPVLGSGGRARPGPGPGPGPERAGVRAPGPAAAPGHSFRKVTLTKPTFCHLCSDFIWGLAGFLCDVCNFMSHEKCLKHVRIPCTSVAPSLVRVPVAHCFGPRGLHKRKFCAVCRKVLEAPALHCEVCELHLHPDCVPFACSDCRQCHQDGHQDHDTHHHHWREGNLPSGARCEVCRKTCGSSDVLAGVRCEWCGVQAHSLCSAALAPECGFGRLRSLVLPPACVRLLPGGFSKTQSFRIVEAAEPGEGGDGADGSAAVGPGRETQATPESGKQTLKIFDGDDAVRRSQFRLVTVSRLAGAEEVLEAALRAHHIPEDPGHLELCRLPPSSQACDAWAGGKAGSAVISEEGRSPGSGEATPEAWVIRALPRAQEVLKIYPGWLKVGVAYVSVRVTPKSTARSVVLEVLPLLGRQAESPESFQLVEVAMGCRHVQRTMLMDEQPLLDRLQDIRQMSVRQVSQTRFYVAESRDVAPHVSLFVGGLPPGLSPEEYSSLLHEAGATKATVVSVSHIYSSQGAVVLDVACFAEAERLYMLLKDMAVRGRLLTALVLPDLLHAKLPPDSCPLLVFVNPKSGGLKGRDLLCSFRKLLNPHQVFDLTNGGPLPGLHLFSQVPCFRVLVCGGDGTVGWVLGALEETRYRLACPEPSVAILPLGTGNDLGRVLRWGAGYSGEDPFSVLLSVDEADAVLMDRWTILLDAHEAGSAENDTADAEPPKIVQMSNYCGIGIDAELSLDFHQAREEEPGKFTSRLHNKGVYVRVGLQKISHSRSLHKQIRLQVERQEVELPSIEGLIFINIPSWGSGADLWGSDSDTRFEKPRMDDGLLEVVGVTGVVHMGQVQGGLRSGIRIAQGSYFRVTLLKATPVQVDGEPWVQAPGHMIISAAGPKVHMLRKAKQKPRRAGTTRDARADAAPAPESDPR

DGK-θ [2] = biological target: T1, DGK-θ; experiment: DGK activity assay; format: biochemical

O=P(O)(O)OP(=O)(O)O [NaPPi, sodium pyrophosphate]
DGK activity assay in OG mixed micelles with cytosol over-expressing DGKθ; dose (DGK-θ [1]): 1 to 2 mM

COc1ccc2c(c1)CC[C@@H]1[C@@H]2CC[C@]2(C)[C@@H](NCCCCCCN3C(=O)C=CC3=O)CC[C@@H]12 [U73122]
Ki (DGK-θ [2]): ~20 µM
